Results from US20220064260A1, “ISOLATED MHC-DERIVED HUMAN PEPTIDES AND USES THEREOF FOR STIMULATING AND ACTIVATING THE SUPPRESSIVE FUNCTION OF CD8+CD45RCLOW TREGS” (INSERM (INSTITUT NATIONAL DE LA SANTÉ ET DE LA RECHERCHE …, priority 2018, published 2022).

Columns and labels:
CD8+CD45RClow Tregs [1] = assay: Peptide stimulation assay (CD8+CD45RClow Treg activation by CD25 and CD69 expression); format: cell-based, human; conditions: 5-days culture, syngeneic CD8+CD45RClow Tregs and autologous HLA-A2+ pDCs, IL-2 and CpG ODN, peptide 120 μg/ml, versus control peptide
Procedure: Peptide Stimulation Assay
CD8^+ CD45RC^low Treg cells and autologous pDCs from the same healthy HLA-A2^+ donor were co-cultured in serum-free Texmacs medium (Miltenyi Biotec) supplemented with IL-2 (25 U/ml, Proleukin, Novartis), CpG ODN 2006 (0.5 μM) and the different synthesized peptides (120 μg/ml) at a ratio 4:1 of Tregs:pDCs for 5 days. CD8^+CD45RC^low Treg activation was analyzed based on expression of CD69 and CD25 markers. As negative control and in order to normalize the results, a negative peptide was used (ALIAPVHAV). Dapi was used as viability marker. As a positive control, CD8^+ CD45RC^low Tregs were stimulated with anti-CD3 (OKT3, 1 μg/ml) and anti-CD28 mAbs (clone: CD28.2; 1 μg/ml). Results were analyzed using the FACS Canto II cytometer (BD Biosciences) and Flowjo software (Tree Star, Inc. USA, version 10).
For the peptide activation test, a non-parametric Wilcoxon signed-rank test, comparing column median to a hypothetical value of 1.0, was done. Analyses were made with GraphPad Prism 7 software (GraphPad).
Four 16aa peptides were designed from four random human MHC class II alleles based on the sequences of the Du51 peptide (NREEYARFDSDVGEYR) and the overlapping 12-mer peptide Bu31-10 (YLRYDSDVGEYR) both bearing the SDVGEYR motif at C-term end (FIG. 1): Hpep1 (NQEESVRFDSDVGEFR-SEQ ID NO: 1), Hpep2 (NREEYARFDSDVGEFR-SEQ ID NO: 2), Hpep3 (NREEYARFDSDVGVYR-SEQ ID NO: 3) and Hpep4 (NREEYVRFDSDVGEYR-SEQ ID NO: 4). We individually tested these peptides differing at positions 2, 5, 6, 14 or 15 in a 5-days culture assay using and syngeneic CD8^+CD45RC^low Tregs and autologous HLA-A2^+ pDCs from the same individuals in presence of interleukin-2 (IL-2) and CpG oligodeoxynucleotides (or CpG ODN) in serum free Texmacs medium (FIG. 2). […] These three peptides share the conserved SDVGE-X-R (SEQ ID NO: 13) 7aa motif while Hpep3 has in addition a valine (V) in place of the glutamic acid (E) at position 14 of the peptide, probably impacting TCR recognition.

CD4+CD25- T cells = assay: Suppression assay (proliferation of CFSE-labeled CD4+CD25- Teffs stimulated with allogeneic APCs); format: cell-based, human; conditions: Tregs expanded 14 days, co-cultured 5 days at 1:1:1 with syngeneic CD4+CD25- T cells and pooled allogeneic APCs; compared to fresh Tregs
Procedure: CFSE-labeled CD4^+ CD25^− Teffs and CD8^+ CD45RC^low Tregs from the same healthy volunteer (HLA-A2^+) were co-cultured with a pool of allogeneic APCs from 3 different healthy donors (HLA-A2^−) in RPMI1640 medium supplemented with 5% human AB serum. Culture was done at 1:1:1 ratio (where 1=5×10^4 cells/well) for 5 days in triplicate in a V-bottom 96 well plate. Proliferation of CD4^+CD25^− responder T cells was analyzed by flow cytometry (FACS Canto II BD Biosciences TM) by gating on CD3^+CD4^+ living cells (DAPI negative) and using Flowjo software (Tree Star, Inc. USA, version 10).

CD8+CD45RClow Tregs [2] = assay: Expansion in vitro of human CD8+CD45RClow Tregs; format: cell-based; conditions: 14 days culture with autologous APCs, IL-2, IL-15 and CpG ODN, versus day 0
Procedure: Expansion In Vitro of Human CD8^+CD45RC^low Tregs
5×10^5 CD8^+CD45RC^low Tregs and 2×10^6 autologous APCs from HLA-A2^+ healthy donors were seeded in a 24 well plate in Texmacs Medium (Miltenyi Biotec), supplemented with penicillin (100 U/ml), streptomycin (100 μg/ml), rhlL-2 (1000 U/ml, Proleukin, Novartis), rhIL-15 (10 ng/ml, Miltenyi Biotec), CpG (0.5 μM), and the different peptides (120 μg/ml) derived from HLA-II molecule (GenScript). As negative control, a negative irrelevant peptide (ALIAPVHAV) was used. As a positive control, CD8^+CD45RC^low Tregs were stimulated with plate-coated anti-CD3 (clone: OKT3, 1 μg/ml) mAb and soluble anti-CD28 mAb (clone: CD28.2; 1 μg/ml). At day 7, Tregs were counted and re-expanded. Cytokines were freshly added twice a week. Finally, at day 14, cells were used for experiments.
To determine whether CD8^+ CD45RC^low Tregs could be expanded using this MHC-II derived peptide, an expansion protocol was set up using sorted CD8^+CD45RC^low/− Tregs and APCs from the same individual with the Hpep2 peptide in presence of IL-2, IL-15 and CpG ODN and compared to a polyclonal stimulation (anti-CD3/28) in similar conditions (FIG. 4).

CD8+CD45RClow Tregs [3] = assay: Extracellular and intracellular stainings of expanded Tregs (flow cytometry); format: cell-based, human; conditions: 14 days expansion, Hpep2 versus anti-CD3/28 expanded Tregs
Procedure: Extracellular and Intracellular Stainings
For the analysis of GITR (clone: DT5D3, Miltenyi Biotec), Foxp3 (clone:259D/C7, BD Biosciences), IL-10 (clone: JES3-9D7 , BD Biosciences), IL-34 (clone: IC5265P, R&D), TGFβ1 (clone: TW4-9E7, BD Biosciences) and IFNγ (clone: B27, BD Biosciences), CD8^+CD45RC^low Treg cells were stimulated with PMA (50 ng/ml) and ionomycin (1 μg/ml) for 5 h in presence of Brefeldin A (10 μg/ml) for the last 4 hours in Texmacs medium (Miltenyi Biotec). In order to select viable cells, Fixable Viability Dye eF506 (ThermoFisher Scientific) was used as viability marker. Fc receptors were blocked before staining (BD Biosciences) and cells were permeabilized with Fix/Perm kit (Ebiociences) for intracellular staining Cell phenotype was analyzed by flow cytometry using the LSR II (BD Biosciences, Mountain View, Calif.) and Flowjo software (Tree Star. Inc. USA, version 10).

allograft = conditions: rats treated with the peptide only (WO2015/150492); cited from earlier work

NQEESVRFDSDVGEFR (listed as Homo sapiens) [Hpep1, 16aa peptide designed from a human MHC class II allele]
CD25 expression on Tregs (CD8+CD45RClow Tregs [1]): upregulated
CD69 expression on Tregs (CD8+CD45RClow Tregs [1]): upregulated

NREEYARFDSDVGEFR (listed as Homo sapiens) [Hpep2, 16aa peptide designed from a human MHC class II allele]
CD25 expression on Tregs (CD8+CD45RClow Tregs [1]): upregulated
CD69 expression on Tregs (CD8+CD45RClow Tregs [1]): upregulated
suppressive activity of expanded CD8+CD45RClow Tregs on an allogeneic immune response (CD4+CD25- T cells): efficient at suppressing an allogeneic immune response
total Treg fold expansion (CD8+CD45RClow Tregs [2]): 10 fold
level of expression of Foxp3, GITR, IL-10, IFNγ and IL-34 in expanded CD8+CD45RClow Tregs (CD8+CD45RClow Tregs [3]): no significant differences

NREEYARFDSDVGEYR [Du51, dominant MHC class II-derived antigen recognized by TCR-biased CD8+ Tregs in rats (WO2015/150492)]
allograft tolerance in recipient rats (allograft): donor-specific allograft tolerance induction

NREEYVRFDSDVGEYR (listed as Homo sapiens) [Hpep4, 16aa peptide designed from a human MHC class II allele]
CD25 expression on Tregs (CD8+CD45RClow Tregs [1]): upregulated
CD69 expression on Tregs (CD8+CD45RClow Tregs [1]): upregulated
